Results as given in ChEMBL document CHEMBL5241057, “Outline of gelatinase inhibitors as anti-cancer agents: A patent mini-review for 2010-present” (Eur J Med Chem, 2021).
pIC50, pKi: −log10 of the molar value. Each block holds one compound with its values, some of them ahead of it. Where a SMILES comes first, the peptide text is derived from it. [ ]: non-standard residue; d: D form. The star is where a group is joined. ξ: configuration not given here. Pro(trans-4-F) = O=C(O)[C@@H]1C[C@@H](F)CN1; NMeIle(3ξ) = CCC(C)[C@H](NC)C(=O)O; Dab = NCC[C@H](N)C(=O)O; Hexanoyl = CCCCCC(=O)*; Bz = O=C(c1ccccc1)*; NHOH = ON*

Columns and labels:
[1] = biological target: T1, 72 kDa type IV collagenase (Homo sapiens, UniProt P08253); assay: Inhibition of MMP2 (unknown origin)
[2] = biological target: T2, Matrix metalloproteinase-9 (Homo sapiens, UniProt P14780); assay: Inhibition of MMP9 (unknown origin) assessed as inhibition constant
[3] = biological target: T1, 72 kDa type IV collagenase; assay: Inhibition of MMP2 (unknown origin) assessed as inhibition constant
[4] = biological target: T2, Matrix metalloproteinase-9; assay: Inhibition of MMP9 (unknown origin)
[5] = biological target: Macrophage metalloelastase (Homo sapiens, UniProt P39900); assay: Inhibition of MMP12 (unknown origin)
B16-BL6 [6] = assay: Antimetastatic activity in mouse implanted with mouse B16-BL6 cells assessed as inhibition of lung metastasis at 2.5 mg/kg relative to control; type: functional; design: scale not given: the % may be the effect or the level left
B16-BL6 [7] = assay: Antimetastatic activity in mouse implanted with mouse B16-BL6 cells assessed as inhibition of lung metastasis at 7.5 mg/kg relative to control; type: functional; design: scale not given: the % may be the effect or the level left
B16-BL6 [8] = assay: Antimetastatic activity in mouse implanted with mouse B16-BL6 cells assessed as inhibition of lung metastasis at 5 mg/kg relative to control; type: functional; design: scale not given: the % may be the effect or the level left
[9] = biological target: T2, Matrix metalloproteinase-9; assay: Inhibition of MMP9 (unknown origin) assessed as dissociation constant
Neutrophil collagenase = Neutrophil collagenase (Homo sapiens, UniProt P22894); assay: Inhibition of MMP8 (unknown origin)
Matrilysin [10] = biological target: T3, Matrilysin (Homo sapiens, UniProt P09237); assay: Inhibition of MMP7 (unknown origin) assessed as inhibition constant
T3 sequence (P09237 whole entry): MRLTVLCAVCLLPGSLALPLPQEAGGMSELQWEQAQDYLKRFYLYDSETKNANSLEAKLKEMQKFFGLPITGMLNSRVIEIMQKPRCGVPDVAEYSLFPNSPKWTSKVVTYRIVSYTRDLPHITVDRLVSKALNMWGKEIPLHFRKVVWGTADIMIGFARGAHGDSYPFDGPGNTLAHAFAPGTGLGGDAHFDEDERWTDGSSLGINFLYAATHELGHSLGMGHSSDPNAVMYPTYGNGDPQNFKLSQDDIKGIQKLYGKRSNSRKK

[11] = biological target: Matrix metalloproteinase-14 (Homo sapiens, UniProt P50281); assay: Inhibition of MMP14 (unknown origin)
Matrilysin [12] = biological target: T3, Matrilysin; assay: Inhibition of MMP7 (unknown origin)

T1 sequence (P08253 whole entry): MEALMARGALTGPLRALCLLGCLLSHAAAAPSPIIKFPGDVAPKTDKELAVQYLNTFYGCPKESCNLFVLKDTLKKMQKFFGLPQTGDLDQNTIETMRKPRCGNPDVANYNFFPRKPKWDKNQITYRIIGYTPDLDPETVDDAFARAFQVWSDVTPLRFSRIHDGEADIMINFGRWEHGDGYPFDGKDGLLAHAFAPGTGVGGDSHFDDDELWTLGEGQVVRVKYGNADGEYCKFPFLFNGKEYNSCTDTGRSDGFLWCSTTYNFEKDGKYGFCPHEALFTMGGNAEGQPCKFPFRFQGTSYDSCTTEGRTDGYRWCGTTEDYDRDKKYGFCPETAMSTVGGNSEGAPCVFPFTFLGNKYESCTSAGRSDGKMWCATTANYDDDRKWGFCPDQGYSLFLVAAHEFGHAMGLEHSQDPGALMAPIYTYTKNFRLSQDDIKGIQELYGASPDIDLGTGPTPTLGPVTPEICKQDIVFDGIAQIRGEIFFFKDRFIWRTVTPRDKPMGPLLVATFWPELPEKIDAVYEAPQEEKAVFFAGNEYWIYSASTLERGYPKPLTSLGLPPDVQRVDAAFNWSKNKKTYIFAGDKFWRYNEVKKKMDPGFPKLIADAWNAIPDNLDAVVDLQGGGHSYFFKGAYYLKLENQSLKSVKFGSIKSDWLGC
T2 sequence (P14780 whole entry): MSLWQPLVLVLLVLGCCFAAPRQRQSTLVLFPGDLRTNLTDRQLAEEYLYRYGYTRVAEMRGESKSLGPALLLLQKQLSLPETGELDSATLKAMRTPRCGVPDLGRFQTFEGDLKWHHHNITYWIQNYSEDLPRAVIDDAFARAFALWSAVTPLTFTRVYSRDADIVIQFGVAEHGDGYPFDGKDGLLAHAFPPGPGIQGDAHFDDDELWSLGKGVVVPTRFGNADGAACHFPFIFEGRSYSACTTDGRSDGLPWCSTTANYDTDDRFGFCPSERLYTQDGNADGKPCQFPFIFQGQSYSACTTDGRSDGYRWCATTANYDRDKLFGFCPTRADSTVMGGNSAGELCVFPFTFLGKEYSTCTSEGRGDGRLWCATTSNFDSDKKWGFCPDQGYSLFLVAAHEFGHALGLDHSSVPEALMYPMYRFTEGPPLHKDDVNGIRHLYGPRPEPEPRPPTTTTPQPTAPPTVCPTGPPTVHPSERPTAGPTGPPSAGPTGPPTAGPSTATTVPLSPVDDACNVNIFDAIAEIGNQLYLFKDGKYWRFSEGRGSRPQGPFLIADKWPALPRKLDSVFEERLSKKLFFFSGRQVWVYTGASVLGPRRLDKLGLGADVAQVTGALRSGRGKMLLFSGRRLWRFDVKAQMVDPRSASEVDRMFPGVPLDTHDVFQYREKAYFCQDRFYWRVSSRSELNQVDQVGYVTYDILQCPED
Sequence of Macrophage metalloelastase (P39900 whole entry): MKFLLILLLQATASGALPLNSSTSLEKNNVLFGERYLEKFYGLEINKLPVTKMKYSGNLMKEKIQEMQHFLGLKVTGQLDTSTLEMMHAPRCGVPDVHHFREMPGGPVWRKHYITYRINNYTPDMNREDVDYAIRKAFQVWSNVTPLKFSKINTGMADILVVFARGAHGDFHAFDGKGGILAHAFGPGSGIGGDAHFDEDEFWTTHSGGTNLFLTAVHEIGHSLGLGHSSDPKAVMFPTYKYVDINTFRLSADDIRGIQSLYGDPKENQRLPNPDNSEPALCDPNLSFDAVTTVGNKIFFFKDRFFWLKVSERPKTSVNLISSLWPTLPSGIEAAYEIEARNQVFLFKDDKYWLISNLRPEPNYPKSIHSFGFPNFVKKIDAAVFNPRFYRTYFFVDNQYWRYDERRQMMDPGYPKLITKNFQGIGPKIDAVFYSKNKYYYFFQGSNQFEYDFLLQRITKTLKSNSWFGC
Sequence of Neutrophil collagenase (P22894 whole entry): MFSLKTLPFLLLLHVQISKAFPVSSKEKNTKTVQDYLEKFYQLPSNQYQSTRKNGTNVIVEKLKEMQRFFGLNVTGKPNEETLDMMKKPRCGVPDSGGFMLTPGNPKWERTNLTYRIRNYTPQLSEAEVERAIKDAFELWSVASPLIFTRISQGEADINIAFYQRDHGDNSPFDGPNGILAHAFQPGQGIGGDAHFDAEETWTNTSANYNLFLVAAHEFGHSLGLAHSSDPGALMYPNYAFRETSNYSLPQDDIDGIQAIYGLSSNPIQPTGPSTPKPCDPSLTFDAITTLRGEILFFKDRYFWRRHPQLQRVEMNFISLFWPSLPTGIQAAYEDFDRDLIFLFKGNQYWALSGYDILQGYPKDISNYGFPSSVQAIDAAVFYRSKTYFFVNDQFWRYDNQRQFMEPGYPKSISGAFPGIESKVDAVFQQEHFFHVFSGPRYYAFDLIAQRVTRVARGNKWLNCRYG

pIC50 [1]: 4.98
SMILES: Cc1ccc(NCC(=O)[C@@H](Cc2ccccc2)NC(=O)Cn2c(=O)c(C)nc3ccccc32)cc1

pIC50 [1]: 9.64
SMILES: O=C(NO)C1(S(=O)(=O)c2ccc(-n3cc(-c4ccc(-c5ccncc5)cc4)nn3)cc2)CCOCC1

pIC50 [5]: 9.25
pIC50 [4]: 9.54
pIC50 [1]: 10.19
SMILES: CCc1ccc(-c2cc(-c3ccc(S(=O)(=O)N[C@H](C(=O)O)C(C)C)cc3)no2)s1

pIC50 [9]: 6.52
SMILES: O=C(CCCSc1nc(=O)c2ccccc2[nH]1)Nc1nc2ccccc2[nH]1

pIC50 [1]: 5.70
SMILES: Cc1nc2ccccc2n(CC(=O)NN/C=C\c2cccc([N+](=O)[O-])c2)c1=O

pIC50 [5]: 9.43
pIC50 (Neutrophil collagenase): 9.25
pIC50 [4]: 9.47
pIC50 [1]: 10.35
SMILES: Cc1ccc(-c2cc(-c3ccc(S(=O)(=O)N[C@H](C(=O)O)C(C)C)cc3)no2)s1

pKi (Matrilysin [10]): 3.94
pIC50 [4]: 9.00
pIC50 [1]: 9.66
SMILES: CN(C)c1ccc(-c2cn(-c3ccc(S(=O)(=O)NC(Cc4ccccc4)C(=O)NO)cc3)nn2)cc1 (centres undefined)

pIC50 [1]: 7.28
SMILES: NS(=O)(=O)c1cc(C(=O)c2ccc3c(-c4ccccc4)c[nH]c3c2)ccc1Cl

The remaining lines, values behind:

SMILES: CN([C@H]1CN(C(N)=O)C[C@@H]1S)S(=O)(=O)c1ccc(Oc2ccccc2)cc1
pIC50 [2]: 8.89
pIC50 [3]: 8.64

SMILES: CC(C)c1noc([C@@H](NC(=O)[C@H](CC2CCCC2)[C@H](O)C(=O)NO)C(C)(C)C)n1
pIC50 [4]: > 7.00

SMILES: CC(=O)NCc1ccc(Oc2ccc(S(=O)(=O)CC3CS3)cc2)cc1 (centres undefined)
pIC50 [1]: 6.63

SMILES: NCCCCCC(=O)N1C[C@H](NS(=O)(=O)c2ccc(Oc3ccccc3)cc2)[C@@H](S)C1
pIC50 [2]: 8.64
pIC50 [3]: 8.66

SMILES: NCc1ccc(Oc2ccc(S(=O)(=O)CC3CS3)cc2)cc1 (centres undefined)
pIC50 [1]: 7.07

SMILES: NCc1nc(-c2ccc(Oc3ccc(S(=O)(=O)CC4CS4)cc3)cc2)no1 (centres undefined)
pIC50 [1]: 6.20

SMILES: C[C@@H]1O[C@@H](O[C@H]2[C@H](O[C@H]3CC[C@@]4(C)C(CC[C@]5(C)C4CC=C4C6CC(C)(C)CC[C@]6(C(=O)O)CC[C@]45C)[C@]3(C)COC(=O)[C@]3(O)C[C@@H](O)[C@@H](O)[C@H](OC(=O)/C=C/c4ccc(O)c(O)c4)C3)OC[C@H](O)[C@@H]2O)[C@H](O)[C@H](O)[C@H]1O (some centres undefined)
Activity (B16-BL6 [6]): 43.5%
Activity (B16-BL6 [7]): 75.2%
pIC50 [4]: 5.15
pIC50 [1]: 5.21
Activity (B16-BL6 [8]): 52.9%

SMILES: COC(=O)Cc1ccc(Oc2ccc(S(=O)(=O)CC3CS3)cc2)cc1 (centres undefined)
pKi [2]: 6.74

SMILES: CC(C)=CCc1cc(/C=C/C(=O)O)cc(CC=C(C)C)c1O [ARTEPILLIN]
pIC50 [11]: 3.46
pIC50 (Matrilysin [12]): 3.49
pIC50 [1]: 5.51

SMILES: CS(=O)(=O)Nc1ccc(Oc2ccc(S(=O)(=O)CC3CS3)cc2)cc1 (centres undefined)
pIC50 [2]: 7.10

SMILES: CCCCCC(=O)N1C[C@H](F)C[C@H]1C(=O)N(C)[C@H](C(=O)N[C@@H](CCNC(=O)c1ccccc1)C(=O)NO)C(C)CC (stereo partly drawn) (Hexanoyl-[Pro(trans-4-F)]-[NMeIle(3ξ)]-[Dab](Bz)-{NHOH})
pIC50 [1]: > 9.00
